Values of other authors, collected in patent US5545628A, “Pharmaceutical composition containing fenofibrate” (priority 1995, dated 1996).

| absorption as metabolite (oral) | excretion (fenofibric acid, mainly as the glucuronide conjugate) | Structure (SMILES) |
| --- | --- | --- |
| absorbed as fenofibric acid | – | CC(C)OC(=O)C(C)(C)Oc1ccc(C(=O)c2ccc(Cl)cc2)cc1 [Fenofibrate, P-(4-chlorobenzoyl)-phenoxy isobutyrate isopropyl ester] |
| – | excreted predominantly in the urine | CC(C)(Oc1ccc(C(=O)c2ccc(Cl)cc2)cc1)C(=O)O [Fenofibric acid] |
